Reference: PMC12742849 (Protein & Cell, 2025)

Key:
[1] = molecular target: GST-tagged Francisella RibD (Francisella tularensis, UniProt A0Q460); details: substrate generated in situ from GTP by E. coli RibA; with and without PEP
[2] = molecular target: ALFA-tagged RibD (RibD-ALFA), F. novicida (Francisella novicida); experiment: pull-down

Sequence of GST-tagged Francisella RibD (A0Q460 1-355): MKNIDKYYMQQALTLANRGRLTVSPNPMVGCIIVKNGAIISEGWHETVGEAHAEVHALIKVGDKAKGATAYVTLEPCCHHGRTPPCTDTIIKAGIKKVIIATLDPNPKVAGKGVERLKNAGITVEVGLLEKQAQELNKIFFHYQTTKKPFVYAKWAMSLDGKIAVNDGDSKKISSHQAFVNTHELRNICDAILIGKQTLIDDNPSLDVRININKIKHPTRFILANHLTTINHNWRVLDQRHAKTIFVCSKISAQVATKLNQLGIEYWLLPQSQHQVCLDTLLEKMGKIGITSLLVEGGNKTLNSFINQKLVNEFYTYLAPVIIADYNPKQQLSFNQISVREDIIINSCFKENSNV

Compound | fluorescence of the RibD reaction product (ex 408 nm, em 485 nm) [1] | stoichiometry N [2]
Nc1nc(N[C@@H]2O[C@H](COP(=O)(O)O)[C@@H](O)[C@H]2O)c(N)c(=O)[nH]1 [2,5-diamino-6-ribosyl-amino-4(3H) pyrimidinedione 5′-phosphate] | Results showed similar activity for both, with PEP having the same effect on each | –
FLAG-tagged enolase (enolase-FLAG), F. novicida (enzyme) | – | 1
